Experimental data published in patent US7223759B2, “Antibacterial 3,5-diaminopiperidine-substituted aromatic and heteroaromatic compounds” (Anadys Pharmaceuticals, Inc., priority 2003, dated 2007).

Each compound was assayed on Escherichia coli (ATCC25922) or Staphylococcus aureus (ATCC25923) (assay: Antibacterial MIC, microdilution method in Mueller-Hinton medium). Settings: Escherichia coli, 18 h, MIC in E. coli or S. aureus; two-fold serial dilutions 64 to 0.5 μg/ml in duplicate; 18 hours of incubation at 35° C.; read-out: Potency (MIC).
Type: cell-based
Procedure, shortened: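 Two-fold serial dilutions from 64 to 0.5 μg/ml, in duplicate, by broth microdilution in Mueller-Hinton medium (NCCLS M7-A5). MIC taken as the lowest concentration preventing visible growth after 18 h at 35° C.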

| MIC [µg/mL] | Structure (SMILES) |
| --- | --- |
| > 64 | Cl.O=S(=O)(c1cc(Nc2nc(N3CCCCC3)nc(N3CCCCC3)n2)ccc1N1CCOCC1)N1CCOCC1 [N-[3-morpholine-4-sulfonyl)-4-morpholin-4-yl-phenyl]-4,6-Bis-((3R,5S)-3,5-diamino-piperidin-1-yl)-[1,3,5]triazine-2-amine] |
| > 64 | Cc1cc(=O)oc2cc(Nc3nc(N4C[C@H](N)C[C@H](N)C4)nc(N4CC[C@H](O)[C@@H]4CN)n3)ccc12 [7-[4-((2S,3S)-2-Aminomethyl-3-hydroxy-pyrrolidin-1-yl)-6-((3R,5S)-3,5-diamino-piperidin-1-yl)-[1,3,5]triazin-2-ylamino]-4-methyl-chromen-2-one] |
| < 64 | N[C@@H]1C[C@H](N)CN(c2nc(Nc3ccc(NC(=O)c4cnc5ccccc5n4)c(O)c3)nc(N3C[C@H](N)C[C@H](N)C3)n2)C1 [N-{3-hydroxy-4-[(quinoxaline-2-carbonyl)-amino]-phenyl}-4,6-Bis-((3R,5S)-3,5-diamino-piperidin-1-yl)-[1,3,5]triazine-2-amine] |
| < 64 | N[C@@H]1C[C@H](N)CN(c2nc(Nc3ccc(NC(=O)c4ccc5ccccc5c4)c(O)c3)nc(N3C[C@H](N)C[C@H](N)C3)n2)C1 [N-{3-hydroxy-4-[(naphthalene-2-carbonyl)-amino]-phenyl}-4,6-Bis-((3R,5S)-3,5-diamino-piperidin-1-yl)-[1,3,5]triazine-2-amine] |
| > 64 | N[C@@H]1C[C@H](N)CN(c2nc(Nc3ccc(NC(=O)C(F)(F)F)cc3)nc(N3C[C@H](N)C[C@H](N)C3)n2)C1 [N-[4-(2,2,2-trifluoro-acetylamino)-phenyl]-4,6-Bis-((3R,5S)-3,5-diamino-piperidin-1-yl)-[1,3,5]triazine-2-amine] |
| > 64 | COC(=O)CC(=O)Nc1ccc(Nc2nc(N3C[C@H](N)C[C@H](N)C3)nc(N3C[C@H](N)C[C@H](N)C3)n2)cc1O [N-{4-[4,6-Bis-((3R,5S)-3,5-diamino-piperidin-1-yl)-[1,3,5]triazin-2-ylamino]-2-hydroxy-phenyl}-malonamic acid methylester] |
| < 64 | Cl.O=C(CC(O)c1ccc(Nc2nc(N3CCCCC3)nc(N3CCCCC3)n2)cc1)Nc1ccccc1C(F)(F)F [N-{4-[1-hydroxy-2-(2-trifluoromethyl-phenylcarbazmoyl)-ethyl]-phenyl}-4,6-Bis-((3R,5S)-3,5-diamino-piperidin-1-yl)-[1,3,5]triazine-2-amine] |
| > 64 | COc1ccc(NC(=O)c2ccc(Cl)cc2O)c(Nc2nc(N3CCCCC3)nc(N3CCCCC3)n2)c1.Cl [BN-[2-(4-chloro-2-hydroxy-benzoylamino)-5-methoxy-phenyl]-4,6-Bis-((3R,5S)-3,5-diamino-piperidin-1-yl)-[1,3,5]triazine-2-amine] |
| > 64 | CC(=O)N1CCN(c2nc(Nc3ccc(S(=O)(=O)Nc4ccc5cn[nH]c5c4)cc3)nc(N3C[C@H](N)C[C@H](N)C3)n2)CC1 [4-[4-(4-Acetyl-piperazin-1-yl)-6-((3R,5S)-3,5-diamino-piperidin-1-yl)-[1,3,5]triazin-2-ylamino]-N-(1H-indazol-6-yl)-benzenesulfonamide] |
| > 64 | Cc1cc(NS(=O)(=O)c2ccc(Nc3nc(N4C[C@H](N)C[C@H](N)C4)nc(N4C[C@H](N)C[C@H](N)C4)n3)cc2)nc(C)n1.Cl [N-[4-(2,6-dimethyl-pyrimidin-4-ylsulfamoyl)-phenyl]-4,6-Bis-((3R,5S)-3,5-diamino-piperidin-1-yl)-[1,3,5]triazine-2-amine] |
| > 64 | Cc1cc(NC(=O)c2cccc([N+](=O)[O-])c2O)ccc1Nc1nc(N2CCCCC2)nc(N2CCCCC2)n1.Cl [N-[4-(2-hydroxy-3-nitro-benzoylamino)-2-methyl-pphenyl]-4,6-Bis-((3R,5S)-3,5-diamino-piperidin-1-yl)-[1,3,5]triazine-2-amine] |
| > 64 | COc1nc(Nc2ccc3c(C)cc(=O)oc3c2)nc(N2CCCCC2)n1.Cl [7-[4-((3R,5S)-3,5-DSiamino-piperidin-1-yl)-6-methoxy-[1,3,5]triazin-2-ylamino]-4-methyl-chromen-2-one] |

Same assay, conditions: Escherichia coli, 18 h, read-out: Potency (MIC)

| Structure (SMILES) | MIC [µg/mL] |
| --- | --- |
| Cc1ccc(S(=O)(=O)N(Cc2ccccc2)c2ccc(Nc3nc(N4C[C@H](N)C[C@H](N)C4)nc(N4C[C@@H](N)C[C@H]4CO)n3)cc2O)cc1 [N-{4-[4-((2S,4S)-4-Amino-2-hydroxymethyl-pyrrolidin-1-yl)-6-((3R,5S)-3,5-diamino-piperidin-1-yl)-[1,3,5]triazin-2-ylamino]-2-hydroxy-phenyl}-N-benzyl-4-methyl-benzenesulfonamide] | < 64 |
| N[C@@H]1C[C@H](N)CN(c2nc(Nc3ccc(C(=O)CC(=O)Nc4ccccc4C(F)(F)F)cc3)nc(N3C[C@H](N)C[C@H](N)C3)n2)C1 [N-{4-[2-(2-trifluoromethyl-phenylcarbamoyl)-acetyl]-phenyl}-4,6-Bis-((3R,5S)-3,5-diamino-piperidin-1-yl)-[1,3,5]triazine-2-amine] | < 64 |
| N[C@@H]1C[C@H](N)CN(c2nc(Nc3ccc(NC(=O)c4ccc(Cl)cc4O)cc3)nc(N3C[C@H](N)C[C@H](N)C3)n2)C1 [N-[4-(4-chloro-2-hydroxy-benzoylamino)-phenyl]-4,6-Bis-((3R,5S)-3,5-diamino-piperidin-1-yl)-[1,3,5]triazine-2-amine] | < 16 |
| N[C@@H]1C[C@H](N)CN(c2nc(Nc3ccc(C(=O)Nc4ccc5[nH]cnc5c4)c(O)c3)nc(N3C[C@H](N)C[C@H](N)C3)n2)C1 [N-[4-(1H-benzoimidazol-5-ylcarbamoyl)-3-hydroxy-phenyl]-4,6-Bis-((3R,5S)-3,5-diamino-piperidin-1-yl)-[1,3,5]triazine-2-amine] | < 16 |
| COc1ccccc1C(=O)Nc1ccc(Nc2nc(N3C[C@H](N)C[C@H](N)C3)nc(N3C[C@H](N)C[C@H](N)C3)n2)cc1O [N-[3-hydroxy-4-(2-methoxy-benzoylamino)-phenyl]-4,6-Bis-((3R,5S)-3,5-diamino-piperidin-1-yl)-[1,3,5]triazine-2-amine] | < 16 |
| N[C@@H]1C[C@H](N)CN(c2nc(Nc3ccc(NC(=O)c4ccc5ccccc5c4O)cc3)nc(N3CCC[C@@H](O)C3)n2)C1 [1-Hydroxy-naphthalene-2-carboxylicacid {4-[4-((3S,5R)-3,5-diamino-piperidin-1-yl)-6-((R)-3-hydroxy-piperidin-1-yl)-[1,3,5]triazin-2-ylamino]-phenyl}-amide] | < 64 |
| Cc1cc(Nc2nc(N3C[C@H](N)C[C@H](N)C3)nc(N3C[C@H](N)C[C@H](N)C3)n2)ccc1NC(=O)c1cccc(C)c1O [N-[4-(2-hydroxy-3-methyl-benzoylamino)-3-methyl-phenyl]-4,6-Bis-((3R,5S)-3,5-diamino-piperidin-1-yl)-[1,3,5]triazine-2-amine] | < 64 |
| COc1ccc(S(=O)(=O)Nc2ccc(Nc3nc(N4C[C@H](N)C[C@H](N)C4)nc(N4C[C@H](N)C[C@H](N)C4)n3)cc2O)cc1OC [N-[4-(3,4-dimethoxy-benzenesulfonylamino)-3-hydroxy-phenyl]-4,6-Bis-((3R,5S)-3,5-diamino-piperidin-1-yl)-[1,3,5]triazine-2-amine] | > 64 |
| N[C@@H]1C[C@H](N)CN(c2nc(Nc3ccc(NC(=O)c4cc(OC(F)(F)F)ccc4O)cc3)nc(N3C[C@H](N)C[C@H](N)C3)n2)C1 [N-[4-(2-hydroxy-5-trifluoromethoxy-benzoylamino)-phenyl]-4,6-Bis-((3R,5S)-3,5-diamino-piperidin-1-yl)-[1,3,5]triazine-2-amine] | < 16 |
| Cc1ccc(C(=O)Nc2ccc(Nc3nc(NC4CCNCC4)nc(N4C[C@H](N)C[C@H](N)C4)n3)cc2O)cc1 [N-{4-[4-((3R,5S)-3,5-Diamino-piperidin-1-yl)-6-(piperidin-4-ylamino)-[1,3,5]triazin-2-ylamino]-2-hydroxy-phenyl}-4-methyl-benzamide] | < 16 |
| N[C@@H]1C[C@H](N)CN(c2nc(Nc3ccc4ccccc4c3)nc(N3C[C@H](N)C[C@H](N)C3)n2)C1 [N-naphthalene-2-yl-4,6-Bis-((3R,5S)-3,5-diamino-piperidin-1-yl)-[1,3,5]triazine-2-amine] | < 64 |
| N[C@@H]1C[C@H](N)CN(c2nc(Nc3ccc4c(c3)-c3ccccc3C4=O)nc(N3C[C@@H](O)[C@@H](O)C3)n2)C1 [3-[4-((3S,5R)-3,5-Diamino-piperidin-1-yl)-6-((3R,4S)-3,4-dihydroxy-pyrrolidin-1-yl)-[1,3,5]triazin-2-ylamino}-fluoren-9-one] | > 64 |
| N[C@@H]1C[C@H](N)CN(c2nc(Nc3ccc(NC(=O)c4cccc([N+](=O)[O-])c4O)cc3O)nc(N3C[C@H](N)C[C@H](N)C3)n2)C1 [N-[2-hydroxy-4-(2-hydroxy-3-nitro-benzoylamino)-phenyl]-4,6-Bis-((3R,5S)-3,5-diamino-piperidin-1-yl)-[1,3,5]triazine-2-amine] | < 64 |
| Cc1ccc(S(=O)(=O)N(Cc2ccccc2)c2ccc(Nc3nc(N4C[C@H](N)C[C@H](N)C4)nc(N4C[C@@H](O)[C@@H](O)C4)n3)cc2O)cc1 [N-Benzyl-N-{4-[4-((3R,5S)-3,5-diamino-piperidin-1-yl)-6-((3R,4S)-3,4-dihydroxy-pyrrolidin-1-yl)-[1,3,5]triazin-2-ylamino]-2-hydroxy-phenyl}-4-methyl-benzenesulfonamide] | < 64 |
| N[C@@H]1C[C@H](N)CN(c2nc(Nc3ccc(C(=O)Nc4ccc(Cl)cc4)c(O)c3)nc(N3C[C@H](N)C[C@H](N)C3)n2)C1 [N-[4-(4-chloro-phenylcarbamoyl)-3-hydroxy-phenyl]-4,6-Bis-((3R,5S)-3,5-diamino-piperidin-1-yl)-[1,3,5]triazine-2-amine] | < 64 |
| N[C@@H]1C[C@H](N)CN(c2nc(Nc3ccc(-c4ccccc4)cc3)nc(N3C[C@H](N)C[C@H](N)C3)n2)C1 [N-biphenyl-4-yl-4,6-Bis-((3R,5S)-3,5-diamino-piperidin-1-yl)-[1,3,5]triazine-2-amine] | < 64 |
| CCCCCC(=O)Nc1ccc(Nc2nc(N3C[C@H](N)C[C@H](N)C3)nc(N3C[C@H](N)C[C@H](N)C3)n2)cc1O [N-(4-hexanoylamino-3-hydroxy-phenyl)-4,6-Bis-((3R,5S)-3,5-diamino-piperidin-1-yl)-[1,3,5]triazine-2-amine] | < 16 |
